Experimental data reported in patent US10213451B2, “Methods and compounds for modulating the secretion or expression of adhesion proteins or angiopoietins of cells” (PACIFIC ARROW LIMITED, priority 2004, dated 2019).
≈ marks a conversion by molar mass, not a printed value.

Tested on: ES2(ovarian) cells
Assay: MTT assay ES2
Assay type: cell-based, human
Method: MTT Assay. The procedure for MTT assay followed the method described by Carmichael et al. (1987) with modifications. The cells were seeded into a 96-well plate at concentration of 10,000/well for HTB-9, HeLa, H460, HCT116, T98G and OVCAR-3), 15,000/well for DU145, MCF-7, HepG2 and U2OS), and 40,000/well for K562 for 24 hours before drug-treatment. The cells were then exposed to the drugs for 48 hours (72 hours for HepG2 and U2OS, and 96 hours for MCF-7). After the drug-treatment, MTT (0.5 mg/mL) was added to cultures and incubated for an hour. The formazan (product of the reduction of tetrazolium by viable cells) formed and was dissolved with DMSO and the O.D. at 490 nm, and was measured by an ELISA reader. The MTT level of the cells before drug-treatment was also measured (T0). The % cell-growth (% G) is calculated as: % G=(TD−T0/TC−T0)×100(1), where TC or TD represents O.D. readings of control or drug-treated cells. When T0>TD, then the cytotoxicity (LC) expressed as % of the control is calculated as: % LC=(TD−T0/T0)×100(2).
Methods: ES2 cells were exposed to (i) Xanifolia-Y with concentrations of 40, 20, 10, 5, 2.5, and 1.25 ug/ml; or (ii) Paclitaxel with concentrations of […]; or (iii) Combined Xanifolia-Y and Paclitaxel with concentrations of each drug in same order (for example, 40 ug/ml Y plus 10 ng/ml T; 20 ug/ml Y plus 5 ng/ml T, etc. please see FIG. 28). Cells growth under these conditions was determined by the MTT assay.
Drug-treatment: cells cultures were replaced with fresh RPMI medium containing Xanifolia-Y (10 ug/ml final concentration) or DMSO (as control) at 0 hour. At 2, and 18 hour, aliquot of culture medium was taken out for Fibronectin determination (Western blot method). Cell viability at 18 hours was determined by MTT assay. Cultures were replaced with RPMI medium with MTT and incubated for an hour. The formation of formazan was dissolved in DMSO and OD at 570 nm was measured.

Structure (SMILES) | IC50 (ES2 cells) [µg/mL] | IC50 (Homo sapiens, ES-2) [µg/mL]
C/C=C(/C)C(=O)O[C@H]1[C@H](OC(C)=O)C(C)(C)CC2C3=CCC4[C@@]5(C)CC[C@H](O)C(C)(C)C5CC[C@@]4(C)[C@]3(C)C[C@@H](O)[C@]21CO (stereo partly shown) [ACH-X] | 40 (≈ 65.1 µM) | 
C/C=C(/C)C(=O)O[C@H]1[C@H](OC(=O)C(C)C)[C@@]2(CO)C(CC1(C)C)C1=CCC3[C@@]4(C)CC[C@H](O)C(C)(C)C4CC[C@@]3(C)[C@]1(C)[C@@H](O)[C@H]2O (stereo partly shown) [ACH-Y0] | 20 (≈ 30.4 µM) | 
CC=C(C)C(=O)OC1C(OC(=O)C(C)=CC)C2(CO)C(CC1(C)C)C1=CCC3C4(C)CCC(O)C(C)(CO)C4CCC3(C)C1(C)C(O)C2O (stereo not shown) [ACH-Y2] | 35 (≈ 51 µM) | 
C/C=C(/C)C(=O)O[C@H]1[C@H](O)[C@@]2(COC(=O)C(C)CC)C(CC1(C)C)C1=CCC3[C@@]4(C)CC[C@H](O)C(C)(C)C4CC[C@@]3(C)[C@]1(C)[C@@H](O)[C@H]2O (stereo partly shown) [ACH-Y7] | 65 (≈ 96.6 µM) | 
CC=C(C)C(=O)OC1C(OC(=O)C(C)=CC)C2(CO)C(O)CC3(C)C(=CCC4C5(C)CCC(O)C(C)(CO)C5CCC43C)C2CC1(C)C (stereo not shown) [ACH-Y8] | 35 (≈ 52.2 µM) | 
C/C=C(/C)C(=O)O[C@H]1[C@H](OC(=O)/C(C)=C\C)[C@@]2(CO)C(CC1(C)C)C1=CCC3[C@@]4(C)CC[C@H](O)C(C)(C)C4CC[C@@]3(C)[C@]1(C)C[C@H]2O (stereo partly shown) [ACH-Y10] | 20 (≈ 30.5 µM) | 
C/C=C(/C)C(=O)O[C@H]1[C@H](OC(=O)c2ccccc2)[C@@]2(CO)C(CC1(C)C)C1=CCC3[C@@]4(C)CC[C@H](O)C(C)(C)C4CC[C@@]3(C)[C@]1(C)[C@@H](O)[C@H]2O (stereo partly shown) [ACH-Z4] | 40 (≈ 57.7 µM) | 
CC=C(C)C(=O)OC1C(OC(=O)c2ccccc2)C(C)(C)CC2C3=CCC4C5(C)CCC(OC6OC(C(=O)O)C(O)C(OC7OCC(O)C(O)C7O)C6OC6OC(CO)C(O)C(O)C6O)C(C)(C)C5CCC4(C)C3(C)CC(O)C21CO [Ba3, 3-O-[β-D-galactopyranosyl(1→2)]-β-D-xylopyranosyl (1→3)-β-D-glucuronopyranosyl-21-O-benzoyl, 22-O-angeloyl-3β, 15α, 21β, 22α, 28-pentahydroxyolean-12-ene] | 8 (≈ 6.97 µM) | 
CC1(C)CC2C3=CCC4C5(C)CCC(OC6OC(C(=O)O)C(O)C(OC7OCC(O)C(O)C7O)C6OC6OC(CO)C(O)C(O)C6O)C(C)(C)C5CCC4(C)C3(C)CC(O)C2(CO)C(OC(=O)c2ccccc2)C1OC(=O)c1ccccc1 [Ba5, 3-O-[β-D-galactopyranosyl(1→2)]-β-D-xylopyranosyl (1→3)-β-D-glucuronopyranosyl-21-O-benzoyl, 22-O-benzoyl-3β, 15α, 21β, 22α, 28-pentahydroxyolean-12-ene] | 16 (≈ 13.7 µM) | 
CC(C)C(=O)OC1C(OC(=O)c2ccccc2)C(C)(C)CC2C3=CCC4C5(C)CCC(OC6OC(C(=O)O)C(O)C(OC7OCC(O)C(O)C7O)C6OC6OC(CO)C(O)C(O)C6O)C(C)(C)C5CCC4(C)C3(C)CC(O)C21CO [Ba7, 3-O-[β-D-galactopyranosyl(1→2)]-β-D-xylopyranosyl (1→3)-β-D-glucuronopyranosyl-21-O-benzoyl, 22-O-isobutyryl-3β, 15α, 21β, 22α, 28-pentahydroxyolean-12-ene] | 11 (≈ 9.69 µM) | 
CC1(C)CC2C3=CCC4C5(C)CCC(OC6OC(C(=O)O)C(O)C(OC7OCC(O)C(O)C7O)C6OC6OC(CO)C(O)C(O)C6O)C(C)(C)C5CCC4(C)C3(C)CC(O)C2(CO)C(O)C1OC(=O)c1ccccc1 [Ba8, 3-O-[β-D-galactopyranosyl(1→2)]-β-D-xylopyranosyl (1→3)-β-D-glucuronopyranosyl-21-O-benzoyl-3β, 15α, 21β, 22α, 28-pentahydroxyolean-12-ene] | 20 (≈ 18.8 µM) | 
CC1(C)CC2C3=CCC4C5(C)CCC(OC6OC(C(=O)O)C(O)C(OC7OCC(O)C(O)C7O)C6OC6OC(CO)C(O)C(O)C6O)C(C)(C)C5CCC4(C)C3(C)CC(O)C2(CO)C(O)C1OC1OCC(OC(=O)c2ccccc2)C(OC(=O)c2ccccc2)C1O [Ba9, 3-O-[β-D-galactopyranosyl(1→2)]-β-D-xylopyranosyl (1→3)-β-D-glucuronopyranosyl-21-O-[3,4-dibenzoyl-β-D-xylopyranosyl]-3β, 15α, 21β, 22α, 28-pentahydroxyolean-12-ene] | 12 (≈ 9.22 µM) | 
CC=C(C)C(=O)OC1C(OC(=O)C=Cc2ccccc2)C23C(O)CC4(C)C5(C)CCC6C(C)(C)C(OC7OC(C(=O)O)C(O)C(OC8OC(CO)C(O)C(O)C8OC8OC(C)C(O)C(O)C8OC8OC(C)C(O)C(O)C8O)C7OC7OC(CO)C(O)C(O)C7O)CCC6(C)C5CCC4(OC2O)C3CC1(C)C (stereo not shown) [Mb1] | 8 (≈ 5.29 µM) | 
CC1OC(OC2C(OC3C(OC4C(O)C(C(=O)O)OC(OC5CCC6(C)C(CCC7(C)C6CCC68OC(O)C9(C(O)CC76C)C(OC(=O)C=Cc6ccccc6)C(OC(=O)c6ccccc6)C(C)(C)CC98)C5(C)C)C4OC4OC(CO)C(O)C(O)C4O)OC(CO)C(O)C3O)OC(C)C(O)C2O)C(O)C(O)C1O (stereo not shown) [Mb3] | 8 (≈ 5.22 µM) | 
CC1OC(OC2C(OC3C(OC4C(O)C(C(=O)O)OC(OC5CCC6(C)C(CCC7(C)C6CCC68OC(O)C9(C(O)CC76C)C(OC(=O)C=Cc6ccccc6)C(OC(=O)c6ccccc6)C(C)(C)CC98)C5(C)C)C4OC4OC(CO)C(O)C(O)C4O)OC(CO)C(O)C3O)OC(C)C(O)C2O)C(O)C(O)C1O (stereo not shown) [Mb4] | 15 (≈ 9.78 µM) | 
CC=C(C)C(=O)OC1C(OC(=O)c2ccccc2)C(C)(C)CC2C13C(O)CC1(C)C4(C)CCC5C(C)(C)C(OC6OC(C(=O)O)C(O)C(OC7OC(CO)C(O)C(O)C7OC7OC(C)C(O)C(O)C7OC7OC(C)C(O)C(O)C7O)C6OC6OC(CO)C(O)C(O)C6O)CCC5(C)C4CCC21OC3O (stereo not shown) [Mb6] | 10 (≈ 6.73 µM) | 
CC1O[C@@H](OC2[C@H](OC3[C@H](O[C@H]4C(O[C@@H]5OC(CO)[C@H](O)[C@@H](O)C5O)[C@H](O[C@H]5CC[C@@]6(C)C(CC[C@]7(C)C6CC[C@]68O[C@H](O)[C@]9(C6CC(C)(C)[C@@H](OC(=O)c6ccccc6)[C@@H]9OC(=O)C=Cc6ccccc6)[C@H](O)[C@H](O)[C@]87C)[C@@]5(C)CO)OC(C(=O)O)[C@H]4O)OC(CO)[C@H](O)[C@H]3O)OC(C)[C@H](O)[C@@H]2O)C(O)[C@@H](O)[C@H]1O (stereo partly shown) [Mb8] | 20 (≈ 12.8 µM) | 
CC=C(C)C(=O)OC1C(OC(=O)c2ccccc2)C2(CO)C(CC1(C)C)C1=CCC3C4(C)CCC(OC5OC(C(=O)O)C(O)C(OC6OC(CO)C(O)C6O)C5OC5OC(CO)C(O)C(O)C5O)C(C)(C)C4CCC3(C)C1(C)C(O)C2O [Xanifolia Z4, 3-O-[β-D-galactopyranosyl(1→2)]-α-L-arabinofuranosyl(1→3)-β-D-glucuronopyranosyl-21-O-angeloyl, 22-O-benzoyl-3β, 15α, 16α, 21β, 22α, 28-hexahydroxyolean-12-ene] | 20 (≈ 17.2 µM) | 
C/C=C(/C)C(=O)O[C@H]1[C@H](OC(=O)/C(C)=C/C)[C@@]2(CO)C(CC1(C)C)C1=CCC3[C@@]4(C)CC[C@H](O[C@@H]5OC(C(=O)O)[C@@H](O)C(O[C@@H]6OC[C@@H](O)C(O)C6O)C5O[C@@H]5OC(CO)[C@H](O)C(O)C5O)C(C)(C)C4CC[C@@]3(C)[C@]1(C)C[C@H]2O (stereo partly drawn) [Xanifolia Z12, 3-O-[β-D-galactopyranosyl(1→2)]-β-D-xylopyranosyl (1→3)-β-D-glucuronopyranosyl-21-O-angeloyl, 22-O-tigloyl-3β, 16α, 21β, 22α, 28-pentahydroxyolean-12-ene] |  | 16 (≈ 14.2 µM)
